# Source: patent US6420147B1, “Haloalkaliphilic microorganisms” (Genencor International, Inc., priority 1991, dated 2002)
# Assays:
# Strain 103Nt.4 = experiment: Antibiotic sensitivity (susceptibility test disks on Medium A agar); assay type: cell-based; conditions: antibiotic disks (contents in Appendix C), 37° C., up to 14 days
# Protocol: (§1) A light suspension of bacteria in alkaline, saline, nutrient broth was spread on the surface of alkaline nutrient, saline agar (Medium A) and allowed to dry. Commercially available antibiotic susceptibility test disks (Oxoid or Mast Laboratories: Merseyside, U.K.) were applied to the agar surface. The bacteria were cultivated at 37° C. for up to 14 days. Clear zones around the antibiotic disks indicated sensitivity and were recorded as positive.
# Strain 31M.4 = experiment: as above; assay type: cell-based; conditions: antibiotic disks (contents in Appendix C), 37° C., up to 14 days
# Protocol: as §1
# Strain 86M.4 = experiment: as above; assay type: cell-based; conditions: antibiotic disks (contents in Appendix C), 37° C., up to 14 days
# Protocol: as §1
# Strain 931LM.4 = experiment: as above; assay type: cell-based; conditions: antibiotic disks (contents in Appendix C), 37° C., up to 14 days
# Protocol: as §1
# Strain 93dLM.4 = experiment: as above; assay type: cell-based; conditions: antibiotic disks (contents in Appendix C), 37° C., up to 14 days
# Protocol: as §1
# Strain 95LM.4 = experiment: as above; assay type: cell-based; conditions: antibiotic disks (contents in Appendix C), 37° C., up to 14 days
# Protocol: as §1
# Strain 98Nt.4 = experiment: as above; assay type: cell-based; conditions: antibiotic disks (contents in Appendix C), 37° C., up to 14 days
# Protocol: as §1
# [1] = test system: Cluster 1 haloalkaliphilic bacteria; experiment: Antibiotic sensitivity, distribution of positive characters; assay type: cell-based; conditions: share of strains of cluster 1 (78.5% similarity level, SSM) scored positive = clear zone around antibiotic disk; Medium A agar, 37° C., up to 14 days
# Protocol: as §1
# [2] = test system: Cluster 2 haloalkaliphilic bacteria; experiment: as above; assay type: cell-based; conditions: share of strains of cluster 2 (78.5% similarity level, SSM) scored positive = clear zone around antibiotic disk; Medium A agar, 37° C., up to 14 days
# Protocol: as §1
# [3] = test system: Cluster 3 haloalkaliphilic bacteria; experiment: as above; assay type: cell-based, haloalkaliphilic eubacteria; conditions: share of strains of cluster 3 (78.5% similarity level, SSM) scored positive = clear zone around antibiotic disk; Medium A agar, 37° C., up to 14 days
# Protocol: as §1
# [4] = test system: Cluster 4 haloalkaliphilic bacteria; experiment: as above; assay type: cell-based, haloalkaliphilic eubacteria; conditions: share of strains of cluster 4 (78.5% similarity level, SSM) scored positive = clear zone around antibiotic disk; Medium A agar, 37° C., up to 14 days
# Protocol: as §1
Compound,Inhibition of growth by antibiotic (Strain 103Nt.4),Inhibition of growth by antibiotic (Strain 31M.4),Inhibition of growth by antibiotic (Strain 86M.4),Inhibition of growth by antibiotic (Strain 931LM.4),Inhibition of growth by antibiotic (Strain 93dLM.4),Inhibition of growth by antibiotic (Strain 95LM.4),Inhibition of growth by antibiotic (Strain 98Nt.4),"Distribution of positive characters: antibiotic sensitivity, Cluster 1 [1]","Distribution of positive characters: antibiotic sensitivity, Cluster 2 [2]","Distribution of positive characters: antibiotic sensitivity, Cluster 3 [3]","Distribution of positive characters: antibiotic sensitivity, Cluster 4 [4]"
CC1(C)S[C@@H]2[C@H](NC(=O)[C@H](N)c3ccccc3)C(=O)N2[C@H]1C(=O)O [ampicillin],inhibited,inhibited,not inhibited,inhibited,inhibited,inhibited,not inhibited,0,0,100,67
CC[C@H]1OC(=O)[C@H](C)[C@@H](O[C@H]2C[C@@](C)(OC)[C@@H](O)[C@H](C)O2)[C@H](C)[C@@H](O[C@@H]2O[C@H](C)C[C@H](N(C)C)[C@H]2O)[C@](C)(O)C[C@@H](C)C(=O)[C@H](C)[C@@H](O)[C@]1(C)O [erythromycin],not inhibited,inhibited,inhibited,inhibited,inhibited,inhibited,inhibited,86,73,100,100
CO[C@@H]1[C@@H](OC(N)=O)[C@@H](O)[C@H](Oc2ccc3c(O)c(NC(=O)c4ccc(O)c(CC=C(C)C)c4)c(=O)oc3c2C)OC1(C)C [novobiocin],inhibited,inhibited,inhibited,inhibited,inhibited,inhibited,inhibited,100,82,33,100
[H]/N=C(/N)N[C@H]1[C@H](O)[C@@H](O)[C@H](O[C@@H]2O[C@@H](C)[C@](O)(C=O)[C@H]2O[C@@H]2O[C@@H](CO)[C@H](O)[C@@H](O)[C@@H]2NC)[C@@H](N/C(N)=N\[H])[C@@H]1O [streptomycin],inhibited,inhibited,not inhibited,inhibited,not inhibited,not inhibited,not inhibited,0,18,67,0
